Experiment: Transport of supinoxin in Caco-2 cells (bidirectional permeability)
Assay type: in vitro ADME
Conditions: human, supinoxin 1 µM
Description: The Caco-2 intestinal epithelial cell line (ATCC® HTB-37™) purchased from American Type Culture Collection (ATCC, Manassas, VA, USA) was cultured and maintained in Dulbecco’s modified Eagle medium (DMEM) containing 10% fetal bovine serum, 100 U/mL penicillin, and 0.1 mg/mL streptomycin under humidified atmosphere of air containing 5% CO2 at 37 °C. Caco-2 cells were seeded at a density of 6 × 10^4 cells/cm^2 onto polyethylene membranes of transwell plates (Corning Costar, Cambridge, MA, USA). The medium was replaced on alternate days after seeding, and cell monolayers were used for the transport assay after approximately 21 days of culture. Trans-epithelial electrical resistance (TEER) values of the Caco-2 monolayers were measured with an EVOM epithelial tissue voltmeter (World Precision Instruments, Sarasota, FL, USA), and cells with TEER greater than 300 Ω were used for the experiments. Cell monolayers were first rinsed three times with transport buffer (Hank’s balanced salt solution supplemented with 10 mM HEPES) and preincubated for 30 min at 37 °C. To measure the bidirectional transport of the compound, a transport buffer containing 1 µM supinoxin was added to the respective donor compartments (the apical and basolateral sides for absorptive and secretory transport assays, respectively). Samples (200 µL) were collected at 30, 60, 90, and 120 min, and an identical volume of fresh buffer was replenished. The samples were then subjected to LC–MS/MS analysis and concentrations of the samples were determined. After the final sampling from both compartments, we measured the TEER of the monolayers to ensure no possible adverse effects induced by the experimental procedures and then estimated the apparent permeability coefficient of supinoxin from the compound’s time-dependent accumulation (dQ/dt) in the receiver compartments using the following equation: Papp = dQ/dt × 1/(A × C0)(1) where dQ/dt is the rate of transport, A is the surface area of the filter, and C0 is the initial concentration in the donor chamber.

For `COCCc1ccc(OCC(O)CNC(C)C)cc1` (centres unmarked) [metoprolol, reference compound], the Papp A→B at 120 min, 1 µM (Caco-2, Caco-2 cell monolayers, read-out: apical to basolateral apparent permeability coefficient) was 15.5 ± 0.8 ×10⁻⁶ cm/s and the Papp B→A at 120 min, 1 µM (Caco-2 cell monolayers, read-out: basolateral to apical apparent permeability coefficient) was 15.7 ± 0.8 ×10⁻⁶ cm/s.
